# Measured values from patent publication US9586961B2, “Homopiperazine derivatives as protein tyrosine kinase inhibitors and pharmaceutical use thereof” (LEO PHARMA A/S, priority 2010, dated 2017).
# Legend:
# Type in all cases: biochemical
# JAK1 = molecular target: T1, JAK1 (Homo sapiens, UniProt P23458); assay: JAK1 kinase assay (HTRF, inhibition of phosphorylation of a synthetic peptide); settings: catalytic domain aa 850-1154, GST-tag; 7 μM ATP (Km); read-out: JAK1 kinase inhibitory activity (EC50)
# T1 construct: JAK1 (aa 850-1154) and TYK2 (aa 871-1187) are expressed with an N-terminally fused GST-tag; GST (N); purchased Carna Biosciences, Inc; host or cells: baculovirus expression system
# T1 sequence (P23458 850-1154): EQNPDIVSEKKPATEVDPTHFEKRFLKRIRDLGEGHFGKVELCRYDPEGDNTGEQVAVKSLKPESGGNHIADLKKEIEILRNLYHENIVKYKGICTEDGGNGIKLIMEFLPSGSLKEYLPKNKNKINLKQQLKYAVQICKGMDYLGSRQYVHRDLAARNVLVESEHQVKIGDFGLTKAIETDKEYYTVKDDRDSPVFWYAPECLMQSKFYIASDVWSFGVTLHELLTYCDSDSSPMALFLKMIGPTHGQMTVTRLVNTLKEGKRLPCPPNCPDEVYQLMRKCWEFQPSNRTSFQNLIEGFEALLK
# Outline: (§1)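 Baculovirus-expressed human catalytic domains (GST-JAK1, GST-TYK2, His-JAK2, His-JAK3) phosphorylated 1 μM TK substrate-biotin at ATP Km (JAK1 7 μM, JAK2 4 μM, JAK3 2 μM, TYK2 13 μM) in pH 7.0 Hepes for 20-30 min at RT, 0.75% DMSO. EDTA stop, then overnight streptavidin-XL665/cryptate-antibody detection and HTRF read.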
# JAK2 = molecular target: T2, JAK2 (Homo sapiens, UniProt O60674); assay: JAK2 kinase assay (HTRF, inhibition of phosphorylation of a synthetic peptide); settings: catalytic domain, His-tag; 4 μM ATP (Km); read-out: JAK2 kinase inhibitory activity (EC50)
# T2 construct: All four purified enzymes contain only the catalytic domain; His (N); purchased Carna Biosciences, Inc; host or cells: baculovirus expression system
# T2 sequence (O60674 849-1124 limits assumed): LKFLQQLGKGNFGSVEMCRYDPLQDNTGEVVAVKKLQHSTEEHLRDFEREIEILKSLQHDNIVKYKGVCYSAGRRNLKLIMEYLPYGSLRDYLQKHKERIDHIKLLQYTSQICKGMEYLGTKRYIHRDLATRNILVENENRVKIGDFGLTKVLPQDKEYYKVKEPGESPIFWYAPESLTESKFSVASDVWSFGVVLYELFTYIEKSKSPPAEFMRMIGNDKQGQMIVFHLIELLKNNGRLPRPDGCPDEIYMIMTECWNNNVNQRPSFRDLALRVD
# Outline: as §1
# JAK3 = molecular target: T3, JAK3 (Homo sapiens, UniProt P52333); assay: JAK3 kinase assay (HTRF, inhibition of phosphorylation of a synthetic peptide); settings: catalytic domain, His-tag; 2 μM ATP (Km); read-out: JAK3 kinase inhibitory activity (EC50)
# T3 construct: All four purified enzymes contain only the catalytic domain; His (N); purchased Carna Biosciences, Inc; host or cells: baculovirus expression system
# T3 sequence (P52333 822-1111 limits assumed): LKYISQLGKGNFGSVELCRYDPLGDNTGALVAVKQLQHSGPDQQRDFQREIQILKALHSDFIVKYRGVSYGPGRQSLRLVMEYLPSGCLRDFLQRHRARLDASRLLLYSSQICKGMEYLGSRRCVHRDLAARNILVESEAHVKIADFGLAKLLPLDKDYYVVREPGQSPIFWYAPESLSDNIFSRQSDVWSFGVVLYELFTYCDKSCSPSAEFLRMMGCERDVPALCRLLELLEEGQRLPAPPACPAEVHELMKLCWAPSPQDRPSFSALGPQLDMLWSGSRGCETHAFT
# Outline: as §1
SMILES,EC50 (JAK1),EC50 (JAK2),EC50 (JAK3)
"CCN(CCC#N)C(=O)N1CCN(c2ncnc3[nH]ccc23)CC2(CC2)C1 [Example 224, N-(2-cyanoethyl)-N-ethyl-5-(7H-pyrrolo[2,3-d]pyrimidin-4-yl)-5,8-diazaspiro[2.6]nonane-8-carboxamide]",> 1000 nM,100 to 1000 nM,100 to 1000 nM
"N#CCCN(CCC#N)C(=O)N1CCN(c2ncnc3[nH]ccc23)CC2(CC2)C1 [Example 225, N,N-bis(2-cyanoethyl)-5-(7H-pyrrolo[2,3-d]pyrimidin-4-yl)-5,8-diazaspiro[2.6]nonane-8-carboxamide]",> 1000 nM,100 to 1000 nM,100 to 1000 nM
"O=C(Cc1nnn[nH]1)N1CCCN(c2ncnc3[nH]ccc23)CC12CC2 [Example 226, 1-[5-(7H-pyrrolo[2,3-d]pyrimidin-4-yl)-5,9-diazaspiro[2.6]nonan-9-yl]-2-(1H-tetrazol-5-yl)ethanone]",> 1000 nM,100 to 1000 nM,> 1000 nM
"O=C(c1cscn1)N1CCCN(c2ncnc3[nH]ccc23)CC12CC2 [Example 227, [5-(7H-pyrrolo[2,3-d]pyrimidin-4-yl)-5,9-diazaspiro[2.6]nonan-9-yl]-thiazol-4-yl-methanone]",100 to 1000 nM,< 100 nM,100 to 1000 nM
"O=C(c1nc[nH]n1)N1CCCN(c2ncnc3[nH]ccc23)CC12CC2 [Example 228, [5-(7H-pyrrolo[2,3-d]pyrimidin-4-yl)-5,9-diazaspiro[2.6]nonan-9-yl]-(1H-1,2,4-triazol-3-yl)methanone]",100 to 1000 nM,100 to 1000 nM,> 1000 nM
"Cc1sncc1C(=O)N1CCN(c2ncnc3[nH]ccc23)CC2(CC2)C1 [Example 229, (5-methylisothiazol-4-yl)-[5-(7H-pyrrolo[2,3-d]pyrimidin-4-yl)-5,8-diazaspiro[2.6]nonan-8-yl]methanone]",100 to 1000 nM,100 to 1000 nM,> 1000 nM
"Cc1sncc1C(=O)N1CCCN(c2ncnc3[nH]ccc23)CC12CC2 [Example 230, (5-methylisothiazol-4-yl)-[5-(7H-pyrrolo[2,3-d]pyrimidin-4-yl)-5,9-diazaspiro[2.6]nonan-9-yl]methanone]",100 to 1000 nM,< 100 nM,100 to 1000 nM
"O=C(c1n[nH]c(Cl)n1)N1CCN(c2ncnc3[nH]ccc23)CC2(CC2)C1 [Example 231, (5-chloro-1H-1,2,4-triazol-3-yl)-[5-(7H-pyrrolo[2,3-d]pyrimidin-4-yl)-5,8-diazaspiro[2.6]nonan-8-yl]methanone]",100 to 1000 nM,100 to 1000 nM,100 to 1000 nM
"O=C(c1n[nH]c(Cl)n1)N1CCCN(c2ncnc3[nH]ccc23)CC12CC2 [Example 232, (5-chloro-1H-1,2,4-triazol-3-yl)-[5-(7H-pyrrolo[2,3-d]pyrimidin-4-yl)-5,9-diazaspiro[2.6]nonan-9-yl]methanone]",100 to 1000 nM,< 100 nM,100 to 1000 nM
"Cc1cc(C(=O)N2CCN(c3ncnc4[nH]ccc34)CC3(CC3)C2)sn1 [Example 233, (3-methylisothiazol-5-yl)-[5-(7H-pyrrolo[2,3-d]pyrimidin-4-yl)-5,8-diazaspiro[2.6]nonan-8-yl]methanone]",100 to 1000 nM,100 to 1000 nM,> 1000 nM
"Cc1cc(C(=O)N2CCCN(c3ncnc4[nH]ccc34)CC23CC3)sn1 [Example 234, (3-methylisothiazol-5-yl)-[5-(7H-pyrrolo[2,3-d]pyrimidin-4-yl)-5,9-diazaspiro[2.6]nonan-9-yl]methanone]",> 1000 nM,100 to 1000 nM,> 1000 nM
"O=C(c1ccns1)N1CCN(c2ncnc3[nH]ccc23)CC2(CC2)C1 [Example 235, isothiazol-5-yl-[5-(7H-pyrrolo[2,3-d]pyrimidin-4-yl)-5,8-diazaspiro[2.6]nonan-8-yl]methanone]",100 to 1000 nM,100 to 1000 nM,100 to 1000 nM
"O=C(c1cncs1)N1CCN(c2ncnc3[nH]ccc23)CC2(CC2)C1 [Example 239, [5-(7H-pyrrolo[2,3-d]pyrimidin-4-yl)-5,8-diazaspiro[2.6]nonan-8-yl]-thiazol-5-yl-methanone]",100 to 1000 nM,100 to 1000 nM,100 to 1000 nM
"O=C(c1cncs1)N1CCCN(c2ncnc3[nH]ccc23)CC12CC2 [Example 240, [5-(7H-pyrrolo[2,3-d]pyrimidin-4-yl)-5,9-diazaspiro[2.6]nonan-9-yl]-thiazol-5-yl-methanone]",100 to 1000 nM,100 to 1000 nM,100 to 1000 nM
"Cc1cnc(C(=O)N2CCN(c3ncnc4[nH]ccc34)CC3(CC3)C2)s1 [Example 241, (5-methylthiazol-2-yl)-[5-(7H-pyrrolo[2,3-d]pyrimidin-4-yl)-5,8-diazaspiro[2.6]nonan-8-yl]methanone]",100 to 1000 nM,100 to 1000 nM,100 to 1000 nM
"Cc1nocc1C(=O)N1CCN(c2ncnc3[nH]ccc23)CC2(CC2)C1 [Example 244, (3-methylisoxazol-4-yl)-[5-(7H-pyrrolo[2,3-d]pyrimidin-4-yl)-5,8-diazaspiro[2.6]nonan-8-yl]methanone]",100 to 1000 nM,100 to 1000 nM,100 to 1000 nM
"Cc1nocc1C(=O)N1CCCN(c2ncnc3[nH]ccc23)CC12CC2 [Example 245, (3-methylisoxazol-4-yl)-[5-(7H-pyrrolo[2,3-d]pyrimidin-4-yl)-5,9-diazaspiro[2.6]nonan-9-yl]methanone]",> 1000 nM,100 to 1000 nM,> 1000 nM
"Cc1ncsc1CC(=O)N1CCN(c2ncnc3[nH]ccc23)CC2(CC2)C1 [Example 246, 2-(4-methylthiazol-5-yl)-1-[5-(7H-pyrrolo[2,3-d]pyrimidin-4-yl)-5,8-diazaspiro[2.6]nonan-8-yl]ethanone]",100 to 1000 nM,100 to 1000 nM,> 1000 nM
"Cc1ncc(CC(=O)N2CCN(c3ncnc4[nH]ccc34)CC3(CC3)C2)s1 [Example 247, 2-(2-methylthiazol-5-yl)-1-[5-(7H-pyrrolo[2,3-d]pyrimidin-4-yl)-5,8-diazaspiro[2.6]nonan-8-yl]ethanone]",100 to 1000 nM,< 100 nM,> 1000 nM
"Cc1cc(CC(=O)N2CCN(c3ncnc4[nH]ccc34)CC3(CC3)C2)n[nH]1 [Example 248, 2-(5-methyl-1H-pyrazol-3-yl)-1-[5-(7H-pyrrolo[2,3-d]pyrimidin-4-yl)-5,8-diazaspiro[2.6]nonan-8-yl]ethanone]",100 to 1000 nM,< 100 nM,> 1000 nM
"Cc1noc(C)c1CC(=O)N1CCN(c2ncnc3[nH]ccc23)CC2(CC2)C1 [Example 249, 2-(3,5-dimethylisoxazol-4-yl)-1-[5-(7H-pyrrolo[2,3-d]pyrimidin-4-yl)-5,8-diazaspiro[2.6]nonan-8-yl]ethanone]",100 to 1000 nM,100 to 1000 nM,> 1000 nM
"Cc1n[nH]c(CC(=O)N2CCN(c3ncnc4[nH]ccc34)CC3(CC3)C2)n1 [Example 250, 2-(3-methyl-1H-1,2,4-triazol-5-yl)-1-[5-(7H-pyrrolo[2,3-d]pyrimidin-4-yl)-5,8-diazaspiro[2.6]nonan-8-yl]ethanone]",100 to 1000 nM,100 to 1000 nM,100 to 1000 nM
"Cc1nonc1CC(=O)N1CCN(c2ncnc3[nH]ccc23)CC2(CC2)C1 [Example 251, 2-(4-methyl-1,2,5-oxadiazol-3-yl)-1-[5-(7H-pyrrolo[2,3-d]pyrimidin-4-yl)-5,8-diazaspiro[2.6]nonan-8-yl]ethanone]",< 100 nM,< 100 nM,100 to 1000 nM
"O=C(Cc1cncs1)N1CCN(c2ncnc3[nH]ccc23)CC2(CC2)C1 [Example 252, 1-[5-(7H-pyrrolo[2,3-d]pyrimidin-4-yl)-5,8-diazaspiro[2.6]nonan-8-yl]-2-thiazol-5-yl-ethanone]",100 to 1000 nM,< 100 nM,100 to 1000 nM
"Cn1cc(CC(=O)N2CCN(c3ncnc4[nH]ccc34)CC3(CC3)C2)cn1 [Example 253, 2-(1-methylpyrazol-4-yl)-1-[5-(7H-pyrrolo[2,3-d]pyrimidin-4-yl)-5,8-diazaspiro[2.6]nonan-8-yl]ethanone]",100 to 1000 nM,100 to 1000 nM,> 1000 nM
"Cc1nc(CC(=O)N2CCN(c3ncnc4[nH]ccc34)CC3(CC3)C2)cs1 [Example 254, 2-(2-methylthiazol-4-yl)-1-[5-(7H-pyrrolo[2,3-d]pyrimidin-4-yl)-5,8-diazaspiro[2.6]nonan-8-yl]ethanone]",100 to 1000 nM,100 to 1000 nM,> 1000 nM
"Cc1nnc(C(=O)N2CCCN(c3ncnc4[nH]ccc34)CC23CC3)[nH]1 [Example 257, (5-methyl-4H-1,2,4-triazol-3-yl)-[5-(7H-pyrrolo[2,3-d]pyrimidin-4-yl)-5,9-diazaspiro[2.6]nonan-9-yl]methanone]",100 to 1000 nM,100 to 1000 nM,> 1000 nM
"O=C(Cc1ccccc1)N1CCN(c2ncnc3[nH]ccc23)CC2(CC2)C1 [Example 259, 2-phenyl-1-[5-(7H-pyrrolo[2,3-d]pyrimidin-4-yl)-5,8-diazaspiro[2.6]nonan-8-yl]ethanone]",100 to 1000 nM,< 100 nM,100 to 1000 nM
"O=C(N1CCN(c2ncnc3[nH]ccc23)CC2(CC2)C1)C1(c2ccccc2)CC1 [Example 260, (1-phenylcyclopropyl)-[5-(7H-pyrrolo[2,3-d]pyrimidin-4-yl)-5,8-diazaspiro[2.6]nonan-8-yl]methanone]",> 1000 nM,100 to 1000 nM,> 1000 nM
